The values that follow come from patent publication US12590062B2, “PD-1/PD-L1 inhibitors” (Gilead Sciences, Inc., priority 2017, dated 2026).

One test addresses T1, PD-1/PD-L1 interaction (Homo sapiens, UniProt Q9NZQ7).
T1 construct: expressed in transfected cells; host or cells: CHO cells (aAPC-PD-L1) co-cultured with Jurkat cells overexpressing PD-1 and an NFAT-luciferase reporter
As to the kind of experiment: PD-1/PD-L1 NFAT reporter co-culture assay. Conditions: Jurkat PD-1 NFAT-luciferase cells co-cultured with aAPC-PD-L1 CHO cells, 6 hrs at 37° C.; read-out: EC50 NFAT Luciferase. The class given is cell-based. Summed up:
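Jurkat cells overexpressing PD-1 with NFAT-luciferase mixed with compounds and plated onto CHO aAPCs expressing anti-CD3 and PD-L1, RPMI with 2% FBS. Co-culture 6 h at 37 °C; luminescence read with ONE-Glo. EC50 from four-parameter fit.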

The target of a further test is T2, PD-L1 (Homo sapiens, UniProt Q9NZQ7).
T2 construct: determine if they can specifically dimerize the extracellular domains of PD-L1
T2 sequence (Q9NZQ7 19-238 limits assumed): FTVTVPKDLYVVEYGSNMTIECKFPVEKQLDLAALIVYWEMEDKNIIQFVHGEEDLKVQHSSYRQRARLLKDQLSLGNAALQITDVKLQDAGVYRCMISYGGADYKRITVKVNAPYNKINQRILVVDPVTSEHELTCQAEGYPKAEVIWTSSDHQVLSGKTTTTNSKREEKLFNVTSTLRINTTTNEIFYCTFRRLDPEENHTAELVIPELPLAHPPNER
T2 sequence (Q9NZQ7 19-238 limits assumed): as above
The test can be described thus: PD-L1/PD-L1 dimerization biochemical protein-protein interaction assay (ALPHA). It is filed as binding. The settings on record: compound-induced PD-L1 dimerization, head prints '1 nM' (0.5 nM His-tagged PD-L1 and 0.5 nM FLAG-tagged PD-L1), read-out: AC50 PDL1 Dimer Alpha 1 nM. Summed up: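 After 2 h at 25 °C with compound, His- and FLAG-tagged PD-L1 ECDs (each 0.5 nM final; 25 mM Hepes pH 7.4, 150 mM NaCl) were detected by sequential anti-His acceptor and anti-FLAG donor bead incubations. Dose-response curves fitted to four-parameter equation for AC50.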

The target in another test is PD-1/PD-L1 (Homo sapiens, UniProt Q9NZQ7). The test can be described thus: PD-1/PD-L1 biochemical protein-protein interaction assay (ALPHA). The class given is binding. The settings on record: 0.3 nM His tagged PD-L1, 2.5 nM biotinylated Fc-PD-1, 60 minutes at 25° C., read-out: IC50 PD-L1-PD-1 Alpha IC50-mono PD-L1-fcP-D1. Summed up:
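His-PD-L1 ECD 0.3 nM + biotin-Fc-PD-1 2.5 nM (final), 25 mM Hepes pH 7.4, 150 mM NaCl, 3.4 mM EDTA; 60 min, 25° C; anti-His acceptor/streptavidin donor ALPHA beads; decreased signal = blocked binding; 4-parameter IC50.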

The structures appear in SMILES notation. pEC50, pIC50: −log10 of the molar value.

T1 sequence (Q9NZQ7 19-290): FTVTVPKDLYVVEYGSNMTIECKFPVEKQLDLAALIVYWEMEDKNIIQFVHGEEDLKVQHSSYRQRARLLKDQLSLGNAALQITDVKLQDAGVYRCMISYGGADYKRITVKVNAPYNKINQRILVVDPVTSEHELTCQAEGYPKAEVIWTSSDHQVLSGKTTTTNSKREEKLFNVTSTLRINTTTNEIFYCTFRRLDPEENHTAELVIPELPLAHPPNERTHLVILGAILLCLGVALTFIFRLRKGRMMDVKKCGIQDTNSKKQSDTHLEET
PD-1/PD-L1, sequence (Q9NZQ7 19-238 limits assumed): as the sequence (Q9NZQ7 19-238 limits assumed) above

Turning to `COc1nc(-c2cccc(-c3cccc(-c4ccc5ncc(CN6CC7(CCC(=O)N7)C6)n5c4)c3Cl)c2Cl)ccc1CN1CC2(CCC(=O)N2)C1` [Example 614], at PD-1/PD-L1 interaction, the pEC50 (in general, the negative decadic logarithm of the EC50, by convention in mol/L) is at most 4.30. Besides, the AC50 (as a rule, the concentration at which the activity in the assay is half-maximal) on PD-L1 is at least 10000 nM. Further, the pIC50 – broadly, the negative decadic logarithm of the IC50, by convention in mol/L – at PD-1/PD-L1 is 7.94.

Regarding `Cc1c(COc2cc(OCc3cncc(C#N)c3)c(CN3CC[C@@H](O)C3)cc2Cl)cccc1-c1cccc(-c2ccc(CNC[C@@H](O)CC(=O)O)cc2)c1C` [Example 308, (S)-4-(((3″-((2-chloro-5-((5-cyanopyridin-3-yl)methoxy)-4-(((R)-3-hydroxypyrrolidin-1-yl)methyl)phenoxy)methyl)-2′,2″-dimethyl-[1,1′:3′,1″-terphenyl]-4-yl)methyl)amino)-3-hydroxybutanoic acid], the pEC50 at PD-1/PD-L1 interaction is 6.43. In addition, the half-maximal activity concentration (AC50) on PD-L1 worked out at 203 nM. The pIC50 on PD-1/PD-L1 is 9.46.

On to `C[C@@](CO)(NCc1cc(Cl)c(O[C@H]2CCc3c(-c4cccc(-c5ccc6c(c5)C[C@@H](N)C6)c4Cl)cccc32)nc1OCc1cncc(C#N)c1)C(=O)O` [Example 696], for which the negative-log EC50 (pEC50) on PD-1/PD-L1 interaction was 7.92. For the same compound, the concentration at half-maximal activity (AC50) at PD-L1 was 16.9 nM. In addition, at PD-1/PD-L1, the pIC50 is 10.00.

Turning to `COc1nc(-c2cccc(-c3cccc(-c4ccc5ncc(CNC[C@@H]6CCC(=O)N6)n5c4)c3Cl)c2Cl)ccc1CNC[C@@H]1CCC(=O)N1` [Example 622], on PD-1/PD-L1 interaction, the pEC50 was at most 4.30. Also, at PD-L1, the AC50 is at least 10000 nM. In addition, on PD-1/PD-L1, the pIC50 was 9.25.

Consider `Cc1c(COc2cc(OCc3cncc(C#N)c3)c(CN[C@@](C)(CO)C(=O)O)cc2Cl)cccc1-c1cccc(-c2ncc(CN3CC[C@@H](O)C3)cn2)c1C` [Example 455], for which, on PD-1/PD-L1 interaction, the pEC50 is 5.81. Besides, the AC50 on PD-L1 came out at 686 nM. Moreover, the pIC50 on PD-1/PD-L1 was 9.76.

Take `COc1nc(O[C@H]2CCc3c(-c4cccc(-c5cnc(CNC[C@@H]6CCC(=O)N6)c(OC)n5)c4Cl)cccc32)c(Cl)cc1CN1CC[C@@H](C(=O)O)C1` [Example 768]: the pEC50 on PD-1/PD-L1 interaction is 7.48. Also, the AC50 at PD-L1 was 47.4 nM. Moreover, the pIC50 at PD-1/PD-L1 is 10.19.

Regarding `COc1nc(-c2cccc(-c3cccc(-c4ccc5c(CN(C)C)c[nH]c5c4)c3Cl)c2Cl)ccc1CNC[C@@H]1CCC(=O)N1` [Example 610], the pEC50 at PD-1/PD-L1 interaction was at most 4.30. Further, at PD-L1, the AC50 turned out to be 105 nM. For the same compound, the pIC50 at PD-1/PD-L1 was 9.13.

Consider `C[C@@](CO)(NCc1ccc(O[C@H]2CCc3c(-c4cccc(OCCCN5CC[C@@H](O)C5)c4Cl)cccc32)nc1OCc1cncc(C#N)c1)C(=O)O` [Example 673], for which, at PD-1/PD-L1 interaction, the pEC50 is 6.23. Besides, the AC50 on PD-L1 was 399 nM. Also, on PD-1/PD-L1, the pIC50 was 9.81.

For the compound `COc1nc(O[C@H]2CCc3c(-c4cccc(-c5ccc(CNC[C@@H]6CCC(=O)N6)c(OCC#N)n5)c4Cl)cccc32)c(Cl)cc1CNC[C@@H]1CCC(=O)N1` [Example 656], the pEC50 on PD-1/PD-L1 interaction is 7.62. On PD-L1, the AC50 was 37.7 nM. Further, the pIC50 on PD-1/PD-L1 was 9.54.

For the compound `Cc1c(COc2cc(OCc3cncc(C#N)c3)c(CNC[C@@H](O)CC(=O)O)cc2Cl)cccc1-c1cccc(-c2ccc(CNC[C@@H](O)CC(=O)O)c(OC(F)F)c2)c1C` [Example 461], at PD-1/PD-L1 interaction, the pEC50 was 7.33. Also, the AC50 on PD-L1 was 128 nM. For the same compound, on PD-1/PD-L1, the pIC50 was 10.19.

On to `Cc1c(COc2cc(OCc3cncc(C#N)c3)c(CNC[C@@H](O)CC(=O)O)cc2Cl)cccc1-c1cccc(-c2nc3c(Cl)cc(CNC[C@@H](O)CC(=O)O)cn3n2)c1C` [Example 393, (S)-4-(((2-(3′-((4-((((S)-3-carboxy-2-hydroxypropyl)amino)methyl)-2-chloro-5-((5-cyanopyridin-3-yl)methoxy)phenoxy)methyl)-2,2′-dimethyl-[1,1′-biphenyl]-3-yl)-8-chloro-[1,2,4]triazolo[1,5-a]pyridin-6-yl)methyl)amino)-3-hydroxybutanoic acid], for which the pEC50 on PD-1/PD-L1 interaction is 6.93. The AC50 on PD-L1 turned out to be 84 nM. Besides, the pIC50 on PD-1/PD-L1 is 10.19.

Take `COc1nc(O[C@H]2CCc3c(-c4cccc(-c5cnc6c(CNC[C@@H]7CCC(=O)N7)cn(C)c6n5)c4Cl)cccc32)c(Cl)cc1CN1CC[C@@H](C(=O)O)C1` [Example 528]: the pEC50 at PD-1/PD-L1 interaction was 7.05. In addition, the AC50 at PD-L1 amounted to 63.3 nM. Further, the pIC50 at PD-1/PD-L1 is 10.17.

With `COc1nc(-c2cccc(-c3cccc(COc4cc(OCc5cncc(C#N)c5)c(CN[C@@](C)(CO)C(=O)O)cc4Cl)c3C)c2C)ccc1C1=NCCN1` [Example 504], on PD-1/PD-L1 interaction, the pEC50 is 7.17. Besides, the AC50 at PD-L1 was determined as 47.8 nM. The pIC50 at PD-1/PD-L1 was 10.19.

Turning to `C[C@](CO)(NCc1cc(Br)c(OCc2cccc(-c3cccc(-c4ccc5c(c4)C[C@@H](N)C5)c3Cl)c2Cl)nc1OCc1cncc(S(C)(=O)=O)c1)C(=O)O` [Example 547], the pEC50 on PD-1/PD-L1 interaction is 7.29. Besides, the AC50 at PD-L1 was 20.1 nM. Besides, the pIC50 at PD-1/PD-L1 is 9.44.

In the case of `COc1nc(OCc2cccc(-c3cccc(-c4ccc5c(c4)C[C@@H](N)C5)c3Cl)c2Cl)c(Br)cc1CN[C@@](C)(CO)C(=O)O` [Example 435], the pEC50 at PD-1/PD-L1 interaction is 6.50. At PD-L1, the AC50 came out at 86.2 nM. For the same compound, the pIC50 on PD-1/PD-L1 is 9.63.

In the case of `Cc1c(COc2cc(OCc3cncc(C#N)c3)c(CN[C@@](C)(CO)C(=O)O)cc2Cl)cccc1-c1cccc(-c2ccc3c(c2)CC(N)C3)c1C` (stereo partly drawn) [Example 343, (S)-2-((4-((3′-((R)-2-amino-2,3-dihydro-1H-inden-5-yl)-2,2′-dimethyl-[1,1′-biphenyl]-3-yl)methoxy)-5-chloro-2-((5-cyanopyridin-3-yl)methoxy)benzyl)amino)-3-hydroxy-2-methylpropanoic acid and(S)-2-((4-((3′-((S)-2-amino-2,3-dihydro-1H-inden-5-yl)-2,2′-dimethyl-[1,1′-biphenyl]-3-yl)methoxy)-5-chloro-2-((5-cyanopyridin-3-yl)methoxy)benzyl)amino)-3-hydroxy-2-methylpropanoic acid], the pEC50 on PD-1/PD-L1 interaction is 6.80. Besides, the AC50 at PD-L1 turned out to be 81.1 nM. On PD-1/PD-L1, the pIC50 was 9.66.

On to `Cc1c(COc2cc(OCc3cncc(C#N)c3)c(CN[C@@](C)(CO)C(=O)O)cc2Cl)cccc1-c1cccc(-c2ccc(C3=NCCN3)cn2)c1C` [Example 500], for which the pEC50 on PD-1/PD-L1 interaction is 7.01. Moreover, the AC50 on PD-L1 turned out to be 50.1 nM. The pIC50 on PD-1/PD-L1 is 10.19.

Take `COc1nc(O[C@H]2CCc3c(-c4cccc(-c5cnc(CN[C@@H]6CCC[C@@H]6O)c(OC)n5)c4Cl)cccc32)c(Cl)cc1CN[C@@H]1CCC[C@@H]1O` [Example 643]: the pEC50 at PD-1/PD-L1 interaction was 7.05. Also, the AC50 at PD-L1 turned out to be 39 nM. Besides, the pIC50 at PD-1/PD-L1 is 9.13.

For the compound `Cc1c(COc2cc(OCc3cncc(C#N)c3)c(CN[C@@H]3CCC[C@@H]3O)cc2Cl)cccc1-c1cccc(-c2ccc3c(c2)CCC3N2CC[C@H](C(=O)O)C2)c1C` (stereo partly drawn) [Example 369, (3S)-1-(5-(3′-((2-chloro-5-((5-cyanopyridin-3-yl)methoxy)-4-((((1R,2S)-2-hydroxycyclopentyl)amino)methyl)phenoxy)methyl)-2,2′-dimethyl-[1,1′-biphenyl]-3-yl)-2,3-dihydro-1H-inden-1-yl)pyrrolidine-3-carboxylic acid], the pEC50 at PD-1/PD-L1 interaction is 6.97. In addition, the AC50 on PD-L1 came out at 57.6 nM. In addition, on PD-1/PD-L1, the pIC50 is 9.79.

As to `COc1cc(-c2cccc(-c3cccc(-c4cnc(C5=NCCN5)c(OC)c4)c3Cl)c2Cl)cnc1CNC[C@@H](O)CC(=O)O` [Example 629], the pEC50 at PD-1/PD-L1 interaction is 6.60. At PD-L1, the AC50 was at least 10000 nM. The pIC50 on PD-1/PD-L1 was 10.19.
